One test concerns PC3 cells. Kind of test: Cell cycle distribution by flow cytometry-based PI staining. On the set-up: species or system human. On the procedure:
PC3 tumor cells were plated at 250,000 cells per well in a 6-well plate and allowed to equilibrate overnight in 5% CO2 at 37° C. For treatment, the media was aspirated to remove dead/floating cells before addition of 3 mL of media with or without compound. […] The cells were then processed for cell cycle analysis. The media was transferred into a 15 mL tube. The cells were trypsinized and transferred to the same tube. The cells were then spun at 12 000 rpm, re-suspended in 500 μL propidium iodide (PI) staining buffer, and incubated at room temperature in the dark for 30 minutes. The sample was then analyzed on a FACSCaliber instrument. The cell cycle experiments were performed on two independent occasions.
The raw data collected from BD FACS Calibur was analyzed by cell cycle software ModFit LT (Verity Software House, Inc). The histogram was generated using the automatic analysis setting. All numbers generated by ModFit LT were transferred to Microsoft Excel and graphed.
PC3 cells display an aneuploid phenotype which is evident in the comparison with HeLa cells.

For another test, the system named is Akt(S473). The test is described as follows: Phospho-Akt(S473) in PC3 cell lysates, MSD. The format is cell-based, human. Particulars: PC3, 1 hour exposure; read-out: p-Akt (S473) IC50. From the text: The direct substrate for TORC1 was 4E-BP 1(T46) and indirect downstream substrate was S6RP(S235/S236). The direct substrate for TORC2 was Akt(S473) and indirect downstream substrates measured were GSK3β(S9) and PRAS40(T246). Additionally, the phosphorylation status of Akt(T308), a phosphorylation site for PDK1 was monitored.
MSD® biomarker detection assays provide a rapid and convenient method for measuring the total and phosphorylated levels of protein targets within a single small volume sample. These assays are available in both single-plex and multiplex formats. In a single-plex assay, an antibody for a specific protein target is coated on one electrode (or spot) per well. […] MSD Read Buffer that provides the appropriate chemical environment for ECL is added and the plate is read using an MSD SECTOR™ Imager. […] The instrument measures intensity of the emitted light to afford a quantitative measure of the amount of phosphorylated Akt or S6RP present in the sample. […]
The assay plate was incubated with 150 μL of MSD Blocker A Solution for 1 hour with shaking at room temperature. […] Then 150 μL of 1×MSD Read Buffer T was added to each well. The plate was read on the SECTOR Imager plate reader. The Excel data was transferred to Activity Base and IC50 values were calculated.
All data was analyzed using XLfit from IDBS. […]

The next test has as its system 4EBP1 (T46). Kind of test: p-4E-BP1 (T46) in PC-3 cell lysates, ELISA (Compound 2). The test is classed as cell-based. The note with it: Homo sapiens; PC-3, 1 hour; read-out: mTORC1 4EBP1 (T46) IC50. The protocol: The direct substrate for mTORC1 was 4E-BP1([…]) and the indirect downstream substrate was S6RP (S235/[…]). The direct substrate for mTORC2 was AKT (S473) and the indirect downstream substrates measured were GSK3β(S9) and PRAS40 ([…]). Additionally, the phosphorylation status of AKT (T308), a phosphorylation site for PDK1, was monitored. Concentration-response curves were plotted and IC50 values determined. Cells were plated at the required density as described in the previous section detailing the Meso Scale assays. […] After incubation with compound, the culture medium was removed via aspiration. Then the plate was placed on ice and 35 μL of the Invitrogen Cell Extraction Buffer (containing fresh PMSF and protease inhibitor cocktail) were added to each well. The treated cells were allowed to undergo lysis for a total of 30 minutes on ice and then shaken for 2 minutes at 4° C. At this point, the plate could be either frozen at -80° C. for later analysis or analyzed immediately with the Invitrogen 4E-BP1[[…]] assay kit. Standards were prepared according to the supplied protocol and 100 μL of each standard was added to appropriate wells. Samples containing Cell Extraction buffer only or diluent buffers only also were included for background controls. […] Absorbance was measured at 450 nm on the VICTORTM X2 multilabel plate reader (Perkin Elmer).
(In general: An ELISA detects its analyte on a solid surface through an enzyme-linked reagent.)

For orientation: IC50 means the point on the concentration scale where inhibition reaches its midpoint. As to `CO[C@H]1CC[C@H](N2C(=O)CNc3ncc(-c4ccc(C(C)(C)O)nc4)nc32)CC1` [Compound 1, 7-(6-(2-hydroxypropan-2-yl)pyridin-3-yl)-1-((1r,4r)-4-methoxycyclohexyl)-3,4-dihydropyrazino-[2,3-b]pyrazin-2(1H)-one], the “% G1” value came out at 81.1% in the test on PC3 cells (0.5 μM, 24 hours); 88.6% in the test with PC3 cells (1 μM, 24 hours); 89.2% in the test with PC3 cells (5 μM, 24 hours). The “% G1a” value was determined as 79% in the test on PC3 cells (0.5 μM, 24 hours); 84.8% with PC3 cells (1 μM, 24 hours); 83.9% with PC3 cells (5 μM, 24 hours). In the test on PC3 cells (24 hours), the “induction of apoptosis (sub-G1 peak)” value is “did not appear to be induction of apoptosis”. Further, the “effect on cell cycle distribution” value in the test on PC3 cells (concentrations relevant to growth inhibition) is given as “capable of inducing a G1 arrest”. Also, the half-maximal inhibitory concentration (IC50) with Akt(S473) turned out to be 10 nM.
Consider `CCN1C(=O)CNc2ncc(-c3ccc(-c4nc[nH]n4)nc3C)nc21` [Compound 2, 1-ethyl-7-(2-methyl-6-(1H-1,2,4-triazol-3-yl)pyridin-3-yl)-3,4-dihydropyrazino[2,3-b]pyrazin-2(1H)-one], for which the IC50 in the test on 4EBP1 (T46) stood at 130 nM.

These data come from patent US20140113904A1, “TREATMENT OF CANCER WITH TOR KINASE INHIBITORS” (SIGNAL PHARMACEUTICALS, LLC, priority 2012, published 2014).
